In brackets after ≈: the same amount, converted by molar mass.
What was measured:
Test in all cases: MIC assay
[1] = system: E. ae. CIP 106754; format: cell-based, Enterobacter aerogenes; conditions: Klebsiella aerogenes, CIP106754, read-out: MIC E. ae. CIP 106754
Protocol: (§1) All cystobactamids were evaluated in MIC-assays on a panel of representative ESKAPE strains with focus on A. baumannii (Tables 1 and 2). Compared to our previous work[10],[17],[18], we specifically included more challenging test strains with known resistances against gyrase inhibitors.
(§2) 2.1 Materials and Methods
(§3) Strains were cultivated according to standard procedures. Bacterial cryo-cultures were
(§4) resuspended into fresh MHBII (cation adjusted) medium. The resuspension
(§5) assay plate (Corning, #3788).
(§6) in parallel as a positive control. […]

[2] = system: A. baum. ATCC BAA-1710; format: cell-based; conditions: Acinetobacter baumannii, ATCCBAA1710; read-out: MIC A. baum. ATCC BAA-1710
Protocol: as §1, §2, §3, §4, §5, §6

[3] = system: A. baum. CIP-107292; format: cell-based; conditions: Acinetobacter baumannii, CIP107292; read-out: MIC A. baum. CIP-107292
Protocol: as §1, §2, §3, §4, §5, §6

[4] = system: A. baum. R835; format: cell-based; conditions: Acinetobacter baumannii; read-out: MIC A. baum. R835
Protocol: as §1, §2, §3, §4, §5, §6

[5] = system: E. cloacae ATCC BAA-2468; format: cell-based; conditions: Enterobacter cloacae, ATCCBAA2468; read-out: MIC E. cloacae ATCC BAA-2468
Protocol: as §1, §2, §3, §4, §5, §6

[6] = system: E. coli ATCC-25922; format: cell-based; conditions: Escherichia coli, ATCC25922; reference strain; read-out: MIC E. coli ATCC-25922
Protocol: as §1, §2, §3, §4, §5, §6

[7] = system: E. coli LM705; format: cell-based; conditions: Escherichia coli, LM705, read-out: MIC E. coli LM705
Protocol: as §1, §2, §3, §4, §5, §6

[8] = system: K. pneum. KP10581; format: cell-based; conditions: Klebsiella pneumoniae; read-out: MIC K. pneum. KP10581
Protocol: as §1, §2, §3, §4, §5, §6

[9] = system: K. pneum. R-1525; format: cell-based; conditions: Klebsiella pneumoniae; read-out: MIC K. pneum. R-1525
Protocol: as §1, §2, §3, §4, §5, §6

[10] = system: S. aur. ATCC-29213; format: cell-based; conditions: Staphylococcus aureus, ATCC29213; reference strain; read-out: MIC S. aur. ATCC-29213
Protocol: as §1, §2, §3, §4, §5, §6

[11] = system: S. pneum. DSM-11865 (PRSP); format: cell-based; conditions: Streptococcus pneumoniae; read-out: MIC S. pneum. DSM-11865 (PRSP)
Protocol: as §1, §2, §3, §4, §5, §6

[12] = system: A. baum. CIP-105742; format: cell-based; conditions: Acinetobacter baumannii, CIP105742; read-out: MIC A. baum. CIP-105742
Protocol: as §1, §2, §3, §4, §5, §6

[13] = system: A. baum. DSM-30008; format: cell-based; conditions: Acinetobacter baumannii, DSM30008; reference strain; read-out: MIC A. baum. DSM-30008
Protocol: as §1, §2, §3, §4, §5, §6

[14] = system: K. pneum. CIP-104298; format: cell-based; conditions: Klebsiella pneumoniae, CIP104298; reference strain; read-out: MIC K. pneum. CIP-104298
Protocol: as §1, §2, §3, §4, §5, §6

[15] = system: P. ae. PA14; format: cell-based; conditions: Pseudomonas aeruginosa, PA14; reference strain; read-out: MIC P. ae. PA14
Protocol: as §1, §2, §3, §4, §5, §6

[16] = system: P. ae. PA14ΔmexAB; format: cell-based; conditions: Pseudomonas aeruginosa, read-out: MIC P. ae. PA14ΔmexAB
Protocol: as §1, §2, §3, §4, §5, §6

[17] = system: E. faec. DSM-17050 (VRE); format: cell-based, Enterococcus faecium; conditions: Enterococcus; read-out: MIC E. faec. DSM-17050 (VRE)
Protocol: as §1, §2, §3, §4, §5, §6

Row | SMILES | MIC [1] [µg/mL] | MIC [2] [µg/mL] | MIC [3] [µg/mL] | MIC [4] [µg/mL] | MIC [5] [µg/mL] | MIC [6] [µg/mL] | MIC [7] [µg/mL] | MIC [8] [µg/mL] | MIC [9] [µg/mL] | MIC [10] [µg/mL] | MIC [11] [µg/mL] | MIC [12] [µg/mL] | MIC [13] [µg/mL] | MIC [14] [µg/mL] | MIC [15] [µg/mL] | MIC [16] [µg/mL] | MIC [17] [µg/mL]
1 | C#CC[C@H](NC(=O)c1ccc(NC(=O)c2ccc(C#N)cc2)cc1)C(=O)Nc1ccc(C(=O)Nc2ccc(C(=O)Nc3ccc(C(=O)O)cc3)c(O)c2OC)cc1 [Cmpd. 10] | 4 (≈ 5.23 µM) | 0.25 (≈ 0.327 µM) | 4 (≈ 5.23 µM) | 4 (≈ 5.23 µM) | 16 (≈ 20.9 µM) | < 0.03 | < 0.03 | 1 (≈ 1.31 µM) | 32 (≈ 41.8 µM) | 0.5 (≈ 0.654 µM) | < 0.03 |  |  |  |  |  | 
2 | C#CC[C@H](NC(=O)c1ccc(NC(=O)c2ccc(C#N)cc2)cc1)C(=O)Nc1ccc(CNc2ccc(C(=O)Nc3ccc(C(=O)O)cc3)c(O)c2OC(C)C)cc1 [Cmpd. 40] | > 64 | 0.5 (≈ 0.642 µM) | > 8 | > 8 | > 64 | 0.5 to 1 (≈ 0.642 to 1.28 µM) | > 64 | 1 (≈ 1.28 µM) | > 64 | 0.5 to 1 (≈ 0.642 to 1.28 µM) | > 64 | 0.25 (≈ 0.321 µM) | 0.5 (≈ 0.642 µM) | > 64 | > 64 | 2 (≈ 2.57 µM) | 0.25 (≈ 0.321 µM)
3 | C#CC[C@H](NC(=O)c1ccc(NC(=O)c2ccc(C#N)cc2)cc1)C(=O)Nc1ccc(C(=O)Nc2ccc3c(=O)n(-c4ccc(C(=O)O)cc4)c(C)nc3c2OC(C)C)cc1 [Cmpd. 45a] | > 64 | 0.5 to 1 (≈ 0.613 to 1.23 µM) | > 8 | > 8 | > 64 | 2 to 4 (≈ 2.45 to 4.9 µM) | > 64 | 4 (≈ 4.9 µM) | > 64 | 4 (≈ 4.9 µM) | > 64 | 4 (≈ 4.9 µM) | 8 (≈ 9.81 µM) | > 64 | > 64 | 16 to 32 (≈ 19.6 to 39.2 µM) | 2 to 4 (≈ 2.45 to 4.9 µM)
4 | C#CC[C@H](NC(=O)c1ccc(NC(=O)c2ccc(C#N)cc2)cc1)C(=O)Nc1ccc(C(=O)Nc2ccc3c(=O)n(-c4ccc(C(=O)O)cc4)cnc3c2OC(C)C)cc1 [Cmpd. 45b] | > 64 | > 8 | > 8 | > 8 | > 64 | 1 (≈ 1.25 µM) | > 64 | 16 (≈ 20 µM) | > 64 | 8 (≈ 9.98 µM) | > 64 | 2 (≈ 2.49 µM) | 1 to 2 (≈ 1.25 to 2.49 µM) | > 64 | > 64 | > 64 | 1 (≈ 1.25 µM)
5 | CO[C@@H](C(N)=O)[C@H](NC(=O)c1ccc(NC(=O)c2ccc(C#N)cc2)cc1)C(=O)Nc1ccc(C(=O)Nc2ccc(C(=O)N(C)c3ccc(C(=O)O)cc3)c(O)c2OC(C)C)cc1 [Cmpd. 46] | > 64 | > 8 | > 8 | > 8 | > 64 | < 0.03 | > 64 | > 64 | > 64 | > 64 | > 64 | > 8 | > 8 | > 64 | > 64 | > 64 | > 64
6 | C#CC[C@H](NC(=O)c1ccc(NC(=O)c2ccc(C#N)cc2)cc1)C(=O)Nc1ccc(C(=O)Nc2ccc(-c3ncc4cc(C(=O)O)ccc4n3)c(O)c2OC(C)C)cc1 [Cmpd. 47] |  |  | > 64 | > 64 |  |  | > 64 | > 64 |  | > 64 |  | > 64 | > 64 | > 64 | > 64 | > 64 | 
7 | C#CC[C@H](NC(=O)c1ccc(NC(=O)c2ccc(C#N)cc2)cc1)C(=O)Nc1ccc(C(=O)Nc2ccc(-c3nc4ccc(C(=O)O)cc4[nH]3)c(O)c2OC(C)C)cc1 [Cmpd. 48] | > 64 | > 8 | > 8 | > 8 | > 64 | 64 (≈ 81 µM) | > 64 | 16 (≈ 20.3 µM) | > 64 | 4 (≈ 5.06 µM) | > 64 | > 8 | 8 (≈ 10.1 µM) | > 64 | > 64 | > 64 | 2 (≈ 2.53 µM)

Source: publication PMC11538350, “Synthetic studies on the tetrasubstituted D-ring of cystobactamids lead to potent terephthalic acid antibiotics” (Communications Chemistry, 2024)
